Measured values taken from patent US10106542B2, “Substituted 6,7-dihydropyrazolo[1,5-a]pyrazines as negative allosteric modulators of mGluR2 receptors” (Janssen Pharmaceutica NV, priority 2013, dated 2018).

What was measured:
human mGlu2 receptor = target: T1, human mGlu2 receptor (Homo sapiens, UniProt Q14416); experiment: [35S]GTPγS binding assay (mGluR2 negative allosteric modulation); type: biochemical; conditions: for IC50: membranes from CHO cells transfected with human mGlu2 receptor, glutamate 60 μM, pIC50 = −log IC50 (M), read-out: GTPγS - hmGluR2 anGT pIC50 (converted); for Emax: relative maximal effect: maximal % inhibition relative to the control glutamate response, read-out: GTPγS - hmGluR2 anGT Emax
T1 construct: expressed in transfected cells; host or cells: CHO cells (membrane preparation)
T1 sequence (Q14416 19-872): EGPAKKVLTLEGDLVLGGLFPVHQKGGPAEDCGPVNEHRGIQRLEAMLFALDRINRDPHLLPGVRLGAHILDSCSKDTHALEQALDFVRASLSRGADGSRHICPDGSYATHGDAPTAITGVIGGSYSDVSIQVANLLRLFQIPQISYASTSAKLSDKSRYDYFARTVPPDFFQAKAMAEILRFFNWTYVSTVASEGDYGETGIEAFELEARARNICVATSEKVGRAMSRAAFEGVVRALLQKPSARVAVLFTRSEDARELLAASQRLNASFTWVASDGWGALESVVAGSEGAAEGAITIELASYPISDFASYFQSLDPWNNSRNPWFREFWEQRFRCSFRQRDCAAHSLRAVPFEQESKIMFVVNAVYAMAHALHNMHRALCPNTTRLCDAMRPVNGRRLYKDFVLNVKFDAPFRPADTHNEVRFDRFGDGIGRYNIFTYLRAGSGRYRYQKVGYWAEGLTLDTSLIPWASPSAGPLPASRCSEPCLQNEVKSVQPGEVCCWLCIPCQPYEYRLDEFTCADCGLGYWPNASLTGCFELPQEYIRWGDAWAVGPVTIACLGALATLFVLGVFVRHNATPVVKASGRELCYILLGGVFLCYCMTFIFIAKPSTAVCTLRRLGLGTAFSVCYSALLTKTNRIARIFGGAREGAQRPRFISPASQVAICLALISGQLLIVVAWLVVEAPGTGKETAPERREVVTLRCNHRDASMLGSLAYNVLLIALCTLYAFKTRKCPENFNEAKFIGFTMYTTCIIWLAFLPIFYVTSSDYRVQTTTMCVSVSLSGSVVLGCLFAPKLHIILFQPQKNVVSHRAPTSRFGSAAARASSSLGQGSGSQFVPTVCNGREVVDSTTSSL
Outline: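 Membranes from butyrate-stimulated CHO cells expressing human mGlu2; 7 μg protein in HEPES pH 7.4, 100 mM NaCl, 3 mM MgCl2, 10 μM GDP, 10 μg/ml saponin. Compound tested against EC80-equivalent glutamate; 0.1 nM [35S]GTPγS, 30 min, 30 °C; filtration, scintillation counting. Data as % of control glutamate response.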

SMILES | IC50 (human mGlu2 receptor) [M] | Emax (human mGlu2 receptor) [%] | melting point
C[C@H]1CN(c2ccc(Cl)cc2)C(=O)c2c(-c3ccncc3)cnn21 [compound 73] | 1.29e-07 | 102 | 144.3 °C
CCOc1cc(N2CC(CO)n3ncc(-c4ccnc(C)c4)c3C2=O)ccc1C(F)(F)F (stereo not drawn) [compound 74] | 2.14e-07 | 100 | 99.1 °C
Cc1cc(-c2cnn3c2C(=O)N(c2ccc(OCCF)c(C(F)(F)F)c2)C[C@@H]3C)ccn1 [compound 77, (7S)-5-[4-(2-Fluoroethoxy)-3-(trifluoromethyl)phenyl]-7-methyl-3-(2-methyl-4-pyridyl)-6,7-dihydropyrazolo[1,5-a]pyrazin-4-one] | 3.89e-07 | 101 | 60.8 °C
COc1cc(N2C[C@H](C)n3ncc(-c4ccnc(C)c4)c3C2=O)cc(F)c1F [compound 84] | 8.13e-07 | 104 | 101.2 °C
COc1cc(F)cc(N2C[C@H](C)n3ncc(-c4ccnc(C)c4)c3C2=O)c1 [compound 85] | 9.55e-07 | 101 | 133 °C
COc1cc(-c2cnn3c2C(=O)N(c2ccc(C(F)(F)F)c(C#N)c2)C[C@@H]3C)ccn1 [compound 88] | 4.07e-08 | 102 | 157.75 °C (dec.)
C[C@H]1CN(c2ccc(C(F)(F)F)cc2)C(=O)c2c(-c3ccnc(N4CC(O)C4)c3)cnn21 [compound 101] | 4.07e-07 | 109 | > 300 °C
C[C@H]1CN(c2ccc(C(F)(F)F)cc2)C(=O)c2c(-c3ccnc(N4CCCC4)c3)cnn21 [compound 105] | 2.75e-08 | 108 | 124 °C
C[C@H]1CN(c2ccc(C(F)(F)F)cc2)C(=O)c2c(-c3ccnc(N4CCOCC4)c3)cnn21 [compound 108] | 1.23e-07 | 108 | 128.1 °C
C[C@H]1CN(c2ccc(Cl)c(Cl)c2)C(=O)c2c(-c3ccnc(C#N)c3)cnn21 [compound 109] | 1.86e-08 | 107 | 149.8 °C
CC(O)c1cc(-c2cnn3c2C(=O)N(c2ccc(Cl)c(Cl)c2)C[C@@H]3C)ccn1 (stereo partly drawn) [compound 111, (7S)-5-(3,4-Dichlorophenyl)-3-[2-(1-hydroxyethyl)-4-pyridyl]-7-methyl-6,7-dihydropyrazolo[1,5-a]pyrazin-4-one] | 2.95e-07 | 108 | > 300 °C
C[C@H]1CN(c2ccc(C(F)(F)F)cc2)C(=O)c2c(-c3ccnc(CF)c3)cnn21 [compound 112] | 3.55e-08 | 103 | 154.9 °C
C[C@H]1CN(c2ccc(Cl)c(Cl)c2)C(=O)c2c(-c3ccnc(C(F)F)c3)cnn21 [compound 114] | 7.08e-09 | 104 | 177.6 °C
CCOc1cc(-c2cnn3c2C(=O)N(c2ccc(C(F)(F)F)cc2)C[C@@H]3C)ccn1 [compound 123] | 6.61e-09 | 107 | 189.5 °C
CC(C)c1cc(-c2cnn3c2C(=O)N(c2ccc(Cl)c(Cl)c2)C[C@@H]3C)ccn1 [compound 124] | 3.02e-09 | 108 | 62.4 °C
C[C@H]1CN(c2ccc(Cl)c(Cl)c2)C(=O)c2c(-c3ccnc(CO)c3)cnn21 [compound 125, (7S)-5-(3,4-Dichlorophenyl)-3-[2-(hydroxymethyl)-4-pyridyl]-7-methyl-6,7-dihydropyrazolo[1,5-a]pyrazin-4-one] | 1.78e-07 | 105 | 105.4 °C
CC(C)c1cc(-c2cnn3c2C(=O)N(c2ccc(C(F)(F)F)cc2)C[C@@H]3C)ccn1 [compound 126, (7S)-3-(2-Isopropyl-4-pyridyl)-7-methyl-5-[4-(trifluoromethyl)phenyl]-6,7-dihydropyrazolo[1,5-a]pyrazin-4-one] | 5.75e-09 | 108 | 70.5 °C
CC(O)c1cc(-c2cnn3c2C(=O)N(c2ccc(C(F)(F)F)cc2)C[C@@H]3C)ccn1 (stereo partly drawn) [compound 128] | 5.89e-07 | 104 | 139.8 °C
CC[C@@H]1CN(c2ccc(C(F)(F)F)cc2)C(=O)c2c(-c3ccnc(C)c3)cnn21 [compound 129] | 6.92e-07 | 100 | 135.1 °C
CC[C@H]1CN(c2ccc(C(F)(F)F)cc2)C(=O)c2c(-c3ccnc(C)c3)cnn21 [compound 130] | 1.7e-08 | 102 | 134.4 °C
C[C@H]1CN(c2ccc(C(F)(F)F)cc2)C(=O)c2c(-c3ccnc(C(F)F)c3)cnn21 [compound 131] | 2.45e-08 | 105 | 134.7 °C
Cc1cc(-c2cnn3c2C(=O)N(c2cc(F)c(C(F)(F)F)c(F)c2)C[C@@H]3C)ccn1 [compound 132] | 2.4e-08 | 103 | 148 °C

SMILES | IC50 (human mGlu2 receptor) [M] | Emax (human mGlu2 receptor) [%] | melting point
Cc1cc(-c2cnn3c2C(=O)N(c2ccc(C4(C(F)(F)F)CC4)cc2)C[C@@H]3C)ccn1 [compound 136] | 4.37e-08 | 102 | 126.2 °C
COCC1CN(c2ccc(Cl)c(Cl)c2)C(=O)c2c(-c3ccnc(C)c3)cnn21 (stereo not drawn) [compound 143] | 2.45e-08 | 104 | > 300 °C
COc1cc(-c2cnn3c2C(=O)N(c2ccc(C(F)(F)F)cc2)C[C@@H]3C)cc(C)n1 [compound 145] | 1.86e-08 | 105 | 57.5 °C
COc1cc(-c2cnn3c2C(=O)N(c2ccc(Cl)c(Cl)c2)C[C@@H]3C)cc(C)n1 [compound 146] | 1.66e-08 | 105 | 166.8 °C
COc1ccc(-c2cnn3c2C(=O)N(c2ccc(C(F)(F)F)cc2)C[C@@H]3C)cn1 [compound 150] | 4.68e-07 | 103 | > 300 °C
C[C@H]1CN(c2ccc(C(F)(F)F)cc2)C(=O)c2c(-c3ccc(C#N)nc3)cnn21 [compound 151] | 1.2e-06 | 103 | 157.6 °C
Cc1cc(N2C[C@H](C)n3ncc(-c4ccncc4)c3C2=O)ccc1C(F)(F)F [compound 153] | 1.45e-08 | 103 | 162 °C
C[C@H]1CN(c2ccc(C(F)(F)F)c(C#N)c2)C(=O)c2c(-c3ccncc3)cnn21 [compound 155] | 8.13e-08 | 103 | 101.8 °C
Cc1cc(-c2cnn3c2C(=O)N(c2ccc(C(F)(F)F)c(C)c2)C[C@@H]3C)cc(C)n1 [compound 157] | 8.71e-09 | 104 | 158.9 °C
COCc1cc(N2C[C@H](C)n3ncc(-c4ccnc(C)c4)c3C2=O)ccc1C(F)(F)F [compound 158] | 2.51e-08 | 106 | 48.2 °C
Cc1cc(-c2cnn3c2C(=O)N(c2cc(Cl)cc(Cl)c2)C[C@@H]3C)ccn1 [compound 159] | 1.35e-08 | 104 | 71.5 °C
Cc1cc(-c2cnn3c2C(=O)N(c2ccc(OCC(F)(F)F)cc2)C[C@@H]3C)ccn1 [compound 160] | 1.07e-07 | 106 | 129.5 °C
Cc1cc(-c2cnn3c2C(=O)N(c2ccc(C(F)F)cc2)C[C@@H]3C)ccn1 [compound 162] | 1.29e-07 | 102 | 185.9 °C
C[C@H]1CN(c2ccc(Cl)c(Cl)c2)C(=O)c2c(-c3ccnc(F)c3)cnn21 [compound 164] | 5.5e-09 | 107 | 170.3 °C
Cc1cc(-c2cnn3c2C(=O)N(c2ccc(OC(F)F)c(Cl)c2)C[C@@H]3C)ccn1 [compound 168] | 2.51e-08 | 106 | 108.5 °C
Cc1cc(-c2cnn3c2C(=O)N(c2ccc(Cl)c(OC(F)(F)F)c2)C[C@@H]3C)ccn1 [compound 169] | 6.03e-09 | 105 | 64.7 °C
Cc1cc(-c2cnn3c2C(=O)N(c2ccc(C(F)(F)F)cc2)CC3(C)C)ccn1 [compound 171] | 1.7e-05 | 94 | 158.8 °C
Cc1cc(-c2cnn3c2C(=O)N(c2ccc(C(F)F)c(Cl)c2)C[C@@H]3C)ccn1 [compound 174] | 1e-08 | 105 | 127.5 °C
C[C@H]1CN(c2ccc(C(F)(F)F)cc2)C(=O)c2c(-c3ccnc(N4CCNCC4)c3)cnn21.Cl [compound 175, (7S)-7-Methyl-3-(2-piperazin-1-yl-4-pyridyl)-5-[4-(trifluoromethyl)phenyl]-6,7-dihydropyrazolo[1,5-a]pyrazin-4-one hydrochloride salt] | 1.35e-06 | 102 | 220.8 °C
C[C@H]1CN(c2ccc(C(F)(F)F)cc2)C(=O)c2c(-c3ccc(N4CCNCC4)nc3)cnn21 [compound 176, (7S)-7-Methyl-3-(6-piperazin-1-yl-3-pyridyl)-5-[4-(trifluoromethyl)phenyl]-6,7-dihydropyrazolo[1,5-a]pyrazin-4-one] | 6.31e-06 | 85 | > 300 °C
CNc1cc(-c2cnn3c2C(=O)N(c2ccc(C(F)(F)F)c(OC)c2)C[C@@H]3C)ccn1 [compound 183] | 2.29e-08 | 103 | 125.6 °C
